# According to patent US6706663B2, “Herbicidal 3-heterocyclic substituted benzisothiazole and benzisoxazole compounds” (Wyeth, priority 2000, dated 2004):
# Columns and labels:
# [1] = tested on: IPOHE (Ipomoea hederacea); experiment: Postemergence herbicidal evaluation; assay type: in vivo, (L.) Jacq.
# How it was run: (§1)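 Seedlings grown about two weeks in flats, sprayed, then kept under standard greenhouse care. Rated visually 4–5 weeks after treatment on a 0–9 scale (stand, vigour, malformation, size, chlorosis, overall appearance) relative to untreated control; repeat tests averaged.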
# [2] = tested on: ECHCG (Echinochloa crus-galli); experiment: Preemergence herbicidal evaluation; assay type: in vivo, (L.) Beau; conditions: rated 4-5 weeks after treatment
# How it was run: (§2)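 Visual 0–9 rating versus control (stand, vigor, malformation, size, chlorosis, overall appearance), scored four to five weeks post-treatment. Preemergence spray of aqueous acetone solution onto freshly seeded soil cups; plants grown under conventional greenhouse care.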
# SETVI (Setaria viridis) [3] = experiment: Preemergence herbicidal evaluation; assay type: in vivo, (L.) Beau; conditions: rated 4-5 weeks after treatment
# How it was run: as §2
# [4] = tested on: CYPSE (Cyperus serotinus); experiment: Flooded paddy, preemergence weed control; assay type: in vivo, Rottb.; conditions: rated 3-4 weeks after treatment, 0-9 rating scale
# How it was run: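 Herbicidal effect was scored visually on a 0–9 scale against an untreated control 3–4 weeks after treatment. Compounds were applied preemergence as 50/50 v/v aqueous/acetone mixtures into flood water (1.5–3 cm deep over silt loam), at roughly 0.0080 to 0.1250 kg/ha active ingredient.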
# [5] = tested on: TRZAWR (Wheat, Winter, cv Riband); experiment: Postemergence herbicidal evaluation; assay type: in vivo, Triticum aestivum
# How it was run: as §1
# [6] = tested on: MOOVA (Monochoria vaginalis); experiment: Flooded paddy, preemergence weed control; assay type: in vivo, Presl.; conditions: rated 3-4 weeks after treatment, 0-9 rating scale
# How it was run: (§3)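 Preemergence, flooded: propagules planted at 0.5 cm depth in silt loam, water level maintained at 1.5 to 3 cm over soil, containers kept on greenhouse benches. Activity scored 0-9 by eye relative to a control plant.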
# [7] = tested on: ABUTH (Abutilon theophrasti); experiment: Postemergence herbicidal evaluation; assay type: in vivo, Medic.
# How it was run: as §1
# [8] = tested on: AMBEL (Ambrosia artemisifolia); experiment: Preemergence herbicidal evaluation; assay type: in vivo, L.; conditions: rated 4-5 weeks after treatment
# How it was run: as §2
# [9] = tested on: CASOB (Cassia obtusifolia); experiment: Preemergence herbicidal evaluation; assay type: in vivo, L.; conditions: rated 4-5 weeks after treatment
# How it was run: as §2
# [10] = tested on: CHEAL (Chenopodium album); experiment: Preemergence herbicidal evaluation; assay type: in vivo, L.; conditions: rated 4-5 weeks after treatment
# How it was run: as §2
# CYPIR (Cyperus iria) = experiment: Flooded paddy, preemergence weed control; assay type: in vivo; conditions: rated 3-4 weeks after treatment, 0-9 rating scale
# How it was run: as §3
# SETVI (Setaria viridis) [11] = experiment: Postemergence herbicidal evaluation; assay type: in vivo, (L.) Beau
# How it was run: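 Postemergence foliar spray on two-week-old seedlings, dose equivalent to about 0.0040 to 1.000 kg/ha. Ratings use a 0-9 visual scale relative to control at four to five weeks.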
# GALAP (Galium aparine) [12] = experiment: Postemergence herbicidal evaluation; assay type: in vivo
# How it was run: as §1
# ORYSAT (Rice, Tebonnet) [13] = experiment: Preemergence herbicidal evaluation; assay type: in vivo, Oryza sativa, (L.) Tebonnet; conditions: rated 4-5 weeks after treatment
# ORYSAT (Rice, Tebonnet) [14] = experiment: Postemergence herbicidal evaluation; assay type: in vivo, Oryza sativa, (L.) Tebonnet
# How it was run: as §1
# [15] = tested on: SAGPY (Sagittaria pygmaea); experiment: Flooded paddy, preemergence weed control; assay type: in vivo, L.; conditions: rated 3-4 weeks after treatment, 0-9 rating scale
# How it was run: as §3
# GALAP (Galium aparine) [16] = experiment: Preemergence herbicidal evaluation; assay type: in vivo; conditions: rated 4-5 weeks after treatment
# How it was run: as §2
# [17] = tested on: AMBEL (Ambrosia artemisifolia); experiment: Postemergence herbicidal evaluation; assay type: in vivo, L.
# How it was run: as §1
# [18] = tested on: CASOB (Cassia obtusifolia); experiment: Postemergence herbicidal evaluation; assay type: in vivo, L.
# How it was run: as §1
# [19] = tested on: CHEAL (Chenopodium album); experiment: Postemergence herbicidal evaluation; assay type: in vivo, L.
# How it was run: as §1
smiles,measurement,setting,value
"CCOc1cc(OCC)nc(-c2nsc3ccc(-n4c(=O)cc(C(F)(F)F)n(C)c4=O)cc23)n1 [Compound 43, 3-[3-(4,6-diethoxy-2-pyrimidinyl)-1,2-benzisothiazol-5-yl]-1-methyl-6-(trifluoromethyl)uracil]","Postemergence herbicidal rating, IPOHE",[1]; rate 0.0320 kg/ha,9.0
same,"Postemergence herbicidal rating, IPOHE",[1]; rate 0.0620 kg/ha,9.0
same,Preemergence herbicidal rating ECHCG,[2]; Rate 0.0620 kg/ha,0.0
same,Preemergence herbicidal rating ECHCG,[2]; Rate 0.1250 kg/ha,0.0
same,Preemergence herbicidal rating ECHCG,[2]; Rate 0.2500 kg/ha,3.0
same,Preemergence herbicidal rating SETVI,SETVI (Setaria viridis) [3]; Rate 0.0620 kg/ha,9.0
same,Preemergence herbicidal rating SETVI,SETVI (Setaria viridis) [3]; Rate 0.1250 kg/ha,9.0
same,Preemergence herbicidal rating SETVI,SETVI (Setaria viridis) [3]; Rate 0.2500 kg/ha,9.0
same,"herbicidal rating, CYPSE",[4]; rate 0.0320 kg/ha,0.0
same,"herbicidal rating, CYPSE",[4]; rate 0.1250 kg/ha,0.0
same,"Postemergence herbicidal rating, TRZAWR",[5]; rate 0.0320 kg/ha,2.5
same,"Postemergence herbicidal rating, TRZAWR",[5]; rate 0.0620 kg/ha,3.5
same,"herbicidal rating, MOOVA",[6]; rate 0.0320 kg/ha,4.0
same,"herbicidal rating, MOOVA",[6]; rate 0.1250 kg/ha,6.0
same,"Postemergence herbicidal rating, ABUTH",[7]; rate 0.0320 kg/ha,9.0
same,"Postemergence herbicidal rating, ABUTH",[7]; rate 0.0620 kg/ha,9.0
same,Preemergence herbicidal rating AMBEL,[8]; Rate 0.0620 kg/ha,0.0
same,Preemergence herbicidal rating AMBEL,[8]; Rate 0.1250 kg/ha,1.0
same,Preemergence herbicidal rating AMBEL,[8]; Rate 0.2500 kg/ha,7.0
same,Preemergence herbicidal rating CASOB,[9]; Rate 0.0620 kg/ha,0.0
same,Preemergence herbicidal rating CASOB,[9]; Rate 0.1250 kg/ha,0.0
same,Preemergence herbicidal rating CASOB,[9]; Rate 0.2500 kg/ha,1.0
same,Preemergence herbicidal rating CHEAL,[10]; Rate 0.0620 kg/ha,9.0
same,Preemergence herbicidal rating CHEAL,[10]; Rate 0.1250 kg/ha,9.0
same,Preemergence herbicidal rating CHEAL,[10]; Rate 0.2500 kg/ha,9.0
same,"herbicidal rating, CYPIR",CYPIR (Cyperus iria); rate 0.0320 kg/ha,0.0
same,"herbicidal rating, CYPIR",CYPIR (Cyperus iria); rate 0.1250 kg/ha,5.0
same,"Postemergence herbicidal rating, SETVI",SETVI (Setaria viridis) [11]; rate 0.0320 kg/ha,5.0
same,"Postemergence herbicidal rating, SETVI",SETVI (Setaria viridis) [11]; rate 0.0620 kg/ha,4.0
same,"Postemergence herbicidal rating, GALAP",GALAP (Galium aparine) [12]; rate 0.0320 kg/ha,4.0
same,"Postemergence herbicidal rating, GALAP",GALAP (Galium aparine) [12]; rate 0.0620 kg/ha,4.0
same,Preemergence herbicidal rating ORYSAT,"ORYSAT (Rice, Tebonnet) [13]; Rate 0.0620 kg/ha",1.0
same,Preemergence herbicidal rating ORYSAT,"ORYSAT (Rice, Tebonnet) [13]; Rate 0.1250 kg/ha",2.0
same,Preemergence herbicidal rating ORYSAT,"ORYSAT (Rice, Tebonnet) [13]; Rate 0.2500 kg/ha",2.0
same,"Postemergence herbicidal rating, ORYSAT","ORYSAT (Rice, Tebonnet) [14]; rate 0.0320 kg/ha",2.0
same,"Postemergence herbicidal rating, ORYSAT","ORYSAT (Rice, Tebonnet) [14]; rate 0.0620 kg/ha",2.0
same,"herbicidal rating, SAGPY",[15]; rate 0.0320 kg/ha,0.0
same,"herbicidal rating, SAGPY",[15]; rate 0.1250 kg/ha,2.0
same,Preemergence herbicidal rating GALAP,GALAP (Galium aparine) [16]; Rate 0.0620 kg/ha,1.0
same,Preemergence herbicidal rating GALAP,GALAP (Galium aparine) [16]; Rate 0.1250 kg/ha,4.0
same,Preemergence herbicidal rating GALAP,GALAP (Galium aparine) [16]; Rate 0.2500 kg/ha,5.0
same,"Postemergence herbicidal rating, AMBEL",[17]; rate 0.0320 kg/ha,9.0
same,"Postemergence herbicidal rating, AMBEL",[17]; rate 0.0620 kg/ha,9.0
same,"Postemergence herbicidal rating, CASOB",[18]; rate 0.0320 kg/ha,2.0
same,"Postemergence herbicidal rating, CASOB",[18]; rate 0.0620 kg/ha,3.0
same,"Postemergence herbicidal rating, CHEAL",[19]; rate 0.0320 kg/ha,6.0
same,"Postemergence herbicidal rating, CHEAL",[19]; rate 0.0620 kg/ha,9.0
